Values of other authors as cited in patent publication US20240285546A1, “TRANSDERMAL THERAPEUTIC SYSTEM CONTAINING AGOMELATINE” (LTS LOHMANN Therapie-Systeme AG, priority 2019, published 2024).

Assays:
[1] = not given; remark: listed apart in the source

COc1ccc2cccc(CCNC(C)=O)c2c1 [agomelatine, N-(2-(7-Methoxy-1-naphthyl)ethyl)acetamide]
Solubility in water: poorly soluble
Volume of distribution ([1]; in steady state): 35 L
Oral absorption ([1]; oral agomelatine): > 80%
Overall bioavailability ([1]; oral agomelatine): less than 5%
Increase in agomelatine exposure (AUC and cmax) ([1]; patients with moderate hepatic impairment compared to healthy subjects): up to 140 fold
